Earlier results on one compound are cited in patent publication US20080045551A1, “PHARMACEUTICAL COMBINATION COMPRISING AN ADENOSINE A1 ANTAGONIST AND A RADIOCONTRAST MEDIA” (priority 2006, published 2008).

SMILES strings stand for the structures.

This series has as its system radiocontrast media induced nephropathy. To be noted: intensive care patients; Greiner 2005.

`Cn1c(=O)c2[nH]cnc2n(C)c1=O` [theophylline]: the “prophylaxis of radiocontrast media induced nephropathy (CIN)” value was “prophylactic properties”.
